{"source": "patent US8598344B2", "about": "“CDKI pathway inhibitors and uses thereof” (Senex Biotechnology, priority 2009, dated 2013)", "key": {"[1]": {"tested_on": "induction of transcription by p21 (CDKI pathway, CMV promoter-GFP) in HT1080 fibrosarcoma cells", "assay": "Cellular assay for CDKI pathway inhibition: CMV-GFP induction by IPTG-inducible p21 in HT1080 reporter cells", "assay_type": "cell-based, human", "procedure": "Briefly, the reporter cell line described in the above-referenced application, which carries IPTG (isopropyl-β-thio-galactoside)-inducible p21 gene together with a p21-inducible promoter driving the expression of Green Fluorescent Protein (GFP) was plated in 96-well plates, at 2000 cells per well for the no-IPTG arm of the assay and at 5000 cells per well for the IPTG arm of the assay. To induce the maximal levels of p21, IPTG was added to 50 μM concentration. Serial 2-fold dilutions of the tested compounds were added in quadruplicates to wells with and without IPTG, ˜10 min after IPTG addition.\nThis assay is based on the induction of green fluorescent protein (GFP) expression from the cytomegalovirus (CMV) promoter in human HT1080 fibrosarcoma cells that express CDKI p21 from an isopropyl-(3-thio-galactoside (IPTG)-inducible promoter. The compound activity as a CDKI pathway inhibitor is measured by its ability to prevent the stimulation of the CMV promoter upon the addition of p21-inducing IPTG. CMV promoter activity is measured by the ratio of GFP fluorescence to the relative cell number, as determined by staining cellular DNA with Hoechst 33342. This assay was conducted in two modes. […]"}, "DLD1 cells": {"tested_on": "DLD1 cells", "assay": "Colon carcinoma cell proliferation, FACS count of live cells", "assay_type": "cell-based, human", "details": "72 hrs; read-out: IC50, growth inhibition", "procedure": "(§1) Inhibition of β-catenin, which is positively regulated by CDK8, was reported to inhibit proliferation of some colon carcinoma cell lines (Firestein et al., 2008). We have therefore determined the ability of compound 1 to inhibit the proliferation of several colon carcinoma cell lines, including human DLD1, HCT116, SW480 and murine C26. This analysis waqs carried out by incubating cells for 72 hrs in the presence of 0, 2.5, 5 or 10 μM compound 1, followed by FACS measurement of the number of live cells, as defined by the lack of uptake of membrane-impermeable dye propidium iodide."}, "HCT116": {"tested_on": "HCT116", "assay": "Colon carcinoma cell proliferation, FACS count of live cells", "assay_type": "cell-based, human", "details": "72 hrs, 2.5, 5 or 10 μM", "procedure": "as §1"}, "SW480": {"tested_on": "SW480", "assay": "Colon carcinoma cell proliferation, FACS count of live cells", "assay_type": "cell-based, human", "details": "72 hrs, 2.5, 5 or 10 μM", "procedure": "as §1"}, "C26": {"tested_on": "C26", "assay": "Colon carcinoma cell proliferation, FACS count of live cells", "assay_type": "cell-based, murine", "details": "72 hrs, 2.5, 5 or 10 μM", "procedure": "as §1"}, "ALK": {"target": "T1, ALK (Homo sapiens, UniProt Q9UM73)", "T1 construct": "purchased KinomeScan, a division of Ambit Biosciences", "assay": "KinomeScan competition binding assay", "details": "10 μM compound", "procedure": "(§2) The KINOMEscan assay has been described in detail in Fabian et al., Nat. Biotechnol. 23: 329 (2005) and Karaman et al., Nat. Biotechnol. 26: 127 (2008).\n(§3) The KinomeScan assay is based on a competition binding assay that quantitatively measures the ability of a compound to compete with an immobilized, ATP site directed ligand. The assay is performed by combining three components: DNA-tagged kinase; immobilized ligand; and a test compound. The ability of the test compound to compete with the immobilized ligand is measured via quantitative PCR of the DNA tag."}, "JNK1": {"target": "T2, JNK1 (Homo sapiens, UniProt P45983)", "T2 construct": "purchased KinomeScan, a division of Ambit Biosciences", "T2 sequence (P45983 whole entry)": "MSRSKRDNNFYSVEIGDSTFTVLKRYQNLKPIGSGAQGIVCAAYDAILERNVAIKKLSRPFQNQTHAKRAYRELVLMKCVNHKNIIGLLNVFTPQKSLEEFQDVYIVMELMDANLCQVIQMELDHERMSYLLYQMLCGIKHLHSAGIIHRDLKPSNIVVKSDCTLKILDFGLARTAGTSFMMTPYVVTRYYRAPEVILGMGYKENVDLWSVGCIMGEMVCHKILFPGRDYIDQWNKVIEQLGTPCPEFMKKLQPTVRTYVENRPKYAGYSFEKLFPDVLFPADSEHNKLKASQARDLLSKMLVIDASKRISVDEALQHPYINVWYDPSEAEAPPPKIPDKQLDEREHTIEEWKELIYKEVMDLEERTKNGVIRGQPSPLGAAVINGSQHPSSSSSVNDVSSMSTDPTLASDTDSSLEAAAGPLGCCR", "assay": "KinomeScan competition binding assay", "details": "10 μM compound", "procedure": "as §2, §3"}, "LTK": {"target": "T3, LTK (Homo sapiens, UniProt P29376)", "T3 construct": "purchased KinomeScan, a division of Ambit Biosciences", "T3 sequence (P29376 17-864)": "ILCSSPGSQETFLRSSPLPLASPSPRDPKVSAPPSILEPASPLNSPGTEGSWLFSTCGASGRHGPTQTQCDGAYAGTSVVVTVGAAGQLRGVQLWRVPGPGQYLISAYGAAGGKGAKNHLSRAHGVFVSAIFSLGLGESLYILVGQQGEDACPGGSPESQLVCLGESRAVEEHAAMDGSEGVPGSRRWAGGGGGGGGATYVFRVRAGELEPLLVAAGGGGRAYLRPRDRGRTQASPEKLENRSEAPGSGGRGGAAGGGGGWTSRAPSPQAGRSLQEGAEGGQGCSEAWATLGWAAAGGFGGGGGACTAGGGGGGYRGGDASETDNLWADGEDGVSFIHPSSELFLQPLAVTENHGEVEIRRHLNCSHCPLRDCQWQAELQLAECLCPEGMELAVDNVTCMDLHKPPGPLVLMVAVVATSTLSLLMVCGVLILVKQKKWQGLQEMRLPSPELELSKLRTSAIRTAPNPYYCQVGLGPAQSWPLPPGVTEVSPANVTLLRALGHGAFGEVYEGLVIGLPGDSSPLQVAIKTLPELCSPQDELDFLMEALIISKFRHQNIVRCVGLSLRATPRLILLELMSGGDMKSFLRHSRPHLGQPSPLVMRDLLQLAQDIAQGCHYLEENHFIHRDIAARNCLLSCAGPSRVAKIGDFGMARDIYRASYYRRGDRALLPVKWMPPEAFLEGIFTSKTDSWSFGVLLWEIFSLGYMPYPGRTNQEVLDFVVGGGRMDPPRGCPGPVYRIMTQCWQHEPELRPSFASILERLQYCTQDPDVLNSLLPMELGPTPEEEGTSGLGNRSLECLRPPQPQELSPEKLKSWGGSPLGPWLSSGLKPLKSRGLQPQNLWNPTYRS", "assay": "KinomeScan competition binding assay", "details": "10 μM compound", "procedure": "as §2, §3"}, "MET": {"target": "T4, MET (Homo sapiens, UniProt P08581)", "T4 construct": "purchased KinomeScan, a division of Ambit Biosciences", "T4 sequence (P08581 25-1390)": "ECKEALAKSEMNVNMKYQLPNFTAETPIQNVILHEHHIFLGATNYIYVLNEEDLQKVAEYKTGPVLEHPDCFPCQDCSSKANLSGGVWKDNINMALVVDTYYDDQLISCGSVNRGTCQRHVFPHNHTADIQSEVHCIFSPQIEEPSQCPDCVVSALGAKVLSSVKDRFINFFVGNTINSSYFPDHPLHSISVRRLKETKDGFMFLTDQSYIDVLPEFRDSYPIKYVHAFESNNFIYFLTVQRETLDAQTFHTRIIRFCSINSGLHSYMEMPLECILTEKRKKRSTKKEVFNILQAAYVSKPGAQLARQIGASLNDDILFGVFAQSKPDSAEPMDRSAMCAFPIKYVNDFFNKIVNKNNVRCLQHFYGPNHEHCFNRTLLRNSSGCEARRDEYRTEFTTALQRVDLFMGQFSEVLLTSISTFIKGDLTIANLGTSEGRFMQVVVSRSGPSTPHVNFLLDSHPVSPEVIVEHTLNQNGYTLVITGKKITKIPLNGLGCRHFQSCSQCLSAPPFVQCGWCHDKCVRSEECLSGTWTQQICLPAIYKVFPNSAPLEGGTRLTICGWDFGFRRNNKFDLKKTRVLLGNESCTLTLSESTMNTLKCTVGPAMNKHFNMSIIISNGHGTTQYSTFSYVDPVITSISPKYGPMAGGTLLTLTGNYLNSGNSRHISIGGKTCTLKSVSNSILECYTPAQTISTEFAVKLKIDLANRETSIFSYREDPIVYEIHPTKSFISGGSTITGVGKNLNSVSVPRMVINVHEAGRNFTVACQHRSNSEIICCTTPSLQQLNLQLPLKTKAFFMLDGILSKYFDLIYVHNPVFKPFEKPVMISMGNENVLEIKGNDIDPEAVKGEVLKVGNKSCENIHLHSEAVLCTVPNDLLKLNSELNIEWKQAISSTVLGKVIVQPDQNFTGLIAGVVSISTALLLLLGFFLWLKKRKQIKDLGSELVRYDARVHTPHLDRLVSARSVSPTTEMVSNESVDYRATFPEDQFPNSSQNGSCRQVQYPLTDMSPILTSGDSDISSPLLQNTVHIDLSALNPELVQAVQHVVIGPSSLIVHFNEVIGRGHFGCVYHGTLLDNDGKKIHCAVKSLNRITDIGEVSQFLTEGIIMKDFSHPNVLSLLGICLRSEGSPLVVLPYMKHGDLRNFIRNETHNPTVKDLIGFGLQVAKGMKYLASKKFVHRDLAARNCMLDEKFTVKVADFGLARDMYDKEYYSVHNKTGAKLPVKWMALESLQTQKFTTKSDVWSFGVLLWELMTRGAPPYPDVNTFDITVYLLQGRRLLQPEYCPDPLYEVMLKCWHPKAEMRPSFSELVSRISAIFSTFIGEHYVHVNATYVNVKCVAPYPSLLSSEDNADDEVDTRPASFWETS", "assay": "KinomeScan competition binding assay", "details": "10 μM compound", "procedure": "as §2, §3"}, "PIM2": {"target": "T5, PIM2 (Homo sapiens, UniProt Q9P1W9)", "T5 construct": "purchased KinomeScan, a division of Ambit Biosciences", "T5 sequence (Q9P1W9 whole entry)": "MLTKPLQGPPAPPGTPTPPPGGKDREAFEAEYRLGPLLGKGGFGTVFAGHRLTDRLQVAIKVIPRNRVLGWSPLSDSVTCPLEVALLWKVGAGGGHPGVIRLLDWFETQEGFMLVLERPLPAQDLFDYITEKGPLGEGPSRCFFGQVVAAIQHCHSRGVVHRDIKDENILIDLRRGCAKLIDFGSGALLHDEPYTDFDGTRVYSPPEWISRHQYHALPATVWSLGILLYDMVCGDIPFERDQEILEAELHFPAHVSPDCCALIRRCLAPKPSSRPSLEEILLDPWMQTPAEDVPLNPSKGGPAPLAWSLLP", "assay": "KinomeScan competition binding assay", "details": "10 μM compound", "procedure": "as §2, §3"}, "PKACa": {"target": "T6, PKACa (Homo sapiens, UniProt P17612)", "T6 construct": "purchased KinomeScan, a division of Ambit Biosciences", "assay": "KinomeScan competition binding assay", "details": "10 μM compound", "procedure": "as §2, §3"}, "PKACb": {"target": "T7, PKACb (Homo sapiens, UniProt P22694)", "T7 construct": "purchased KinomeScan, a division of Ambit Biosciences", "assay": "KinomeScan competition binding assay", "details": "10 μM compound", "procedure": "as §2, §3"}, "PRKG2": {"target": "T8, PRKG2 (Homo sapiens, UniProt Q13237)", "T8 construct": "purchased KinomeScan, a division of Ambit Biosciences", "T8 sequence (Q13237 whole entry)": "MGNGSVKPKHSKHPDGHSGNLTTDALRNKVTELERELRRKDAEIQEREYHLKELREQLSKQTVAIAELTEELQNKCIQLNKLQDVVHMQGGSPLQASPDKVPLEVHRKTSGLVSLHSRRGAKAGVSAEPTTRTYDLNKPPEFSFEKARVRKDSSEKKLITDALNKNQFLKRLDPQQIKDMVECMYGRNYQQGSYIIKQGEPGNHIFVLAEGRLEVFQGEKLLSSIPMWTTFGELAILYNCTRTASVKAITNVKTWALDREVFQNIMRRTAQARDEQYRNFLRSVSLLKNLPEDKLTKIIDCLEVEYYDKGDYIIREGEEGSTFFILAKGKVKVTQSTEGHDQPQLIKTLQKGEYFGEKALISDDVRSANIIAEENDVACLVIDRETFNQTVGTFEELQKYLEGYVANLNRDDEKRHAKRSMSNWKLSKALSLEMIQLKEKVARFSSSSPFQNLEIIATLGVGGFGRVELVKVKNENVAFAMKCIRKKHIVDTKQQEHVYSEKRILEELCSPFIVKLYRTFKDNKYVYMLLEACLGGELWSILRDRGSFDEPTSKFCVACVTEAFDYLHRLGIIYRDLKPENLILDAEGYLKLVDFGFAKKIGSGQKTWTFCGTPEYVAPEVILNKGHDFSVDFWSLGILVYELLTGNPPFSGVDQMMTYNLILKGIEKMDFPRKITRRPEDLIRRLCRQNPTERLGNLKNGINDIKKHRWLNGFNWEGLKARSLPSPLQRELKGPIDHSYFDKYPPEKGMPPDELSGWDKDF", "assay": "KinomeScan competition binding assay", "details": "10 μM compound", "procedure": "as §2, §3"}, "RIOK2": {"target": "T9, RIOK2 (Homo sapiens, UniProt Q9BVS4)", "T9 construct": "purchased KinomeScan, a division of Ambit Biosciences", "assay": "KinomeScan competition binding assay", "details": "10 μM compound", "procedure": "as §2, §3"}, "ROCK1": {"target": "T10, ROCK1 (Homo sapiens, UniProt Q13464)", "T10 construct": "purchased KinomeScan, a division of Ambit Biosciences", "assay": "KinomeScan competition binding assay", "details": "10 μM compound", "procedure": "as §2, §3"}, "ROCK2": {"target": "T11, ROCK2 (Homo sapiens, UniProt O75116)", "T11 construct": "purchased KinomeScan, a division of Ambit Biosciences", "T11 sequence (O75116 whole entry)": "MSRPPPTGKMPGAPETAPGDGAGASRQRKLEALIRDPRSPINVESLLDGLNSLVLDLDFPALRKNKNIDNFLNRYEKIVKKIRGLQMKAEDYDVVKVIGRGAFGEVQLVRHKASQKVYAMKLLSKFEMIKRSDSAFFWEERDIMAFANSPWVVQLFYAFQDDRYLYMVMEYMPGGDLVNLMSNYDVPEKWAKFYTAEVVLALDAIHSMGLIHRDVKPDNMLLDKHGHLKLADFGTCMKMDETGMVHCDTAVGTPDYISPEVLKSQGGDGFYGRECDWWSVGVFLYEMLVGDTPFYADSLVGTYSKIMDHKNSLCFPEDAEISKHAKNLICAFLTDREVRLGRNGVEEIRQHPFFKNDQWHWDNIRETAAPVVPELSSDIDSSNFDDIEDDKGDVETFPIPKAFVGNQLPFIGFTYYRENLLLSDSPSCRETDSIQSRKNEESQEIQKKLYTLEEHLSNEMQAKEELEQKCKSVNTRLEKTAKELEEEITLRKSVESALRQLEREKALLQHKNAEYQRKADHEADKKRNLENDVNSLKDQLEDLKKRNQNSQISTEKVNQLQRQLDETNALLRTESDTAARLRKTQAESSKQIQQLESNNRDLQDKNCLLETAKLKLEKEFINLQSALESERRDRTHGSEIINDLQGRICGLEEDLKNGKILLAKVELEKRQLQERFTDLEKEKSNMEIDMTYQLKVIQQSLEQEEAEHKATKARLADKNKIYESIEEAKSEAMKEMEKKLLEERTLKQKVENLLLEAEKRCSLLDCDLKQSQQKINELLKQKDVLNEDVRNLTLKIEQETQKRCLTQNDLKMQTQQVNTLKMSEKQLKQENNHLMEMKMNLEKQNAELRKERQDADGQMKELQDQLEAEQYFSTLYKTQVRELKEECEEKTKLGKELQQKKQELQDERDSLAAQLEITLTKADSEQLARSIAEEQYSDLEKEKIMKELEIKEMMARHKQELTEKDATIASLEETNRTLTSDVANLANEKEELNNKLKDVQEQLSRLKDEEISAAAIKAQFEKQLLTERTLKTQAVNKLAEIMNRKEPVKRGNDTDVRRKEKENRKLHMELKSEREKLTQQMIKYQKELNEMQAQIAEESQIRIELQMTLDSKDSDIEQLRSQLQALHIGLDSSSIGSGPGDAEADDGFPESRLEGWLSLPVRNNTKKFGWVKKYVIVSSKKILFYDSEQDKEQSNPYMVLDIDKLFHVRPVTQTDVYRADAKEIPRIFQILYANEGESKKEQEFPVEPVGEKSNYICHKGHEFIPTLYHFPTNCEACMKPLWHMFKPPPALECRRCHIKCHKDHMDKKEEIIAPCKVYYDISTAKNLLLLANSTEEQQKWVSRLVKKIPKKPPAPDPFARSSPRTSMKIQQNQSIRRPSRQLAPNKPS", "assay": "KinomeScan competition binding assay", "details": "10 μM compound", "procedure": "as §2, §3"}, "ROS1": {"target": "T12, ROS1 (Homo sapiens, UniProt P08922)", "T12 construct": "purchased KinomeScan, a division of Ambit Biosciences", "assay": "KinomeScan competition binding assay", "details": "10 μM compound", "procedure": "as §2, §3"}, "HIV-1": {"tested_on": "HIV-1", "details": "read-out: EC50, decrease in fraction of HIV-infected (p24-positive) cells; day 5", "protocol": "HIV replication was assayed in a cell-to-cell model of HIV-1 transmission using chronically infected H9IIIB as donor cells cocultivated with uninfected CEM-ss leukemia cell line as recipient cells. 1 ml of RPMI1640 medium (+10% Fetal Bovine Serum+Penicillin/Streptomycin+glutamine) containing 10^4 H9IIIB cells was mixed with 1 ml of the same medium containing 10^6 CEM-ss cells. […] The suspended cells were placed into a 25 cm^2 flask and incubated at 37° C., 5% CO2. On day 3, the cells were counted with a light microscope and an hemocytometer after trypan blue staining, which was used to determine the fraction of viable (trypan blue negative) cells. On day 5, the fraction of HIV-infected cells was determined using the K57-FITC conjugated monoclonal antibody to the HIV p24 antigen. For this measurement, the cells in each flask were mixed, 1 ml of cell culture was removed from each flask and placed into round bottom centrifuge tubes. The cells were separated from the medium by centrifugation at 1500 RPM for 5 minutes, the supernatants were aspirated and discarded and the cell pellets suspended in a fixative. […] The final pellets were suspended in 0.5 ml of PBS and the percentage of HIV p24-positive cells was determined by FACS analysis."}, "[2]": {"details": "Table 1, IC50 calculated on the basis of the maximal inhibition produced by the highest doses, IPTG mode (50 μM or 2 μM) not stated, read-out: Cell-based assay (IC50)"}, "[3]": {"details": "Table 2, calculated assuming maximal effect = zero GFP/Hoechst, no unit in table, μM from FIG. 8 legend, no activity at 40 μM given as >100, read-out: IC50 in the cellular assay"}}, "note": "Where two headings read alike, the source gives them in different places.", "data": [{"smiles": "N#Cc1ccc2ncnc(NCCc3ccc4ccccc4c3)c2c1", "note": "[compound 26]", "values": [{"measurement": "IC50", "setting": "[1]; [2]", "result": 0.769, "unit": "µM"}, {"measurement": "IC50", "setting": "[1]; [3]", "result": 1.15, "unit": "µM"}]}, {"smiles": "N#Cc1ccc2ncnc(NCc3ccc4ccccc4c3)c2c1", "note": "[compound 43]", "values": [{"measurement": "IC50", "setting": "[1]; [2]", "result": 0.22, "unit": "µM"}, {"measurement": "IC50", "setting": "[1]; [3]", "result": 0.95, "unit": "µM"}]}, {"smiles": "N#Cc1ccc2ncnc(NCCc3ccccc3)c2c1", "note": "[compound 1]", "values": [{"measurement": "IC50", "setting": "[1]; [2]", "result": 0.641, "unit": "µM"}, {"measurement": "IC50", "setting": "[1]; [3]", "result": 1.3, "unit": "µM"}, {"measurement": "IC50", "setting": "[1]; read-out: IC50, p21 induced by 8 μM IPTG, 8 μM IPTG, 72 hours", "result": 0.57, "unit": "µM"}, {"measurement": "IC50", "setting": "DLD1 cells", "result": "~5", "unit": "µM"}, {"measurement": "growth of colon carcinoma cell line", "setting": "HCT116", "result": "inhibited the growth"}, {"measurement": "growth of colon carcinoma cell line", "setting": "SW480", "result": "inhibited the growth"}, {"measurement": "growth of colon carcinoma cell line", "setting": "C26", "result": "inhibited the growth"}, {"measurement": "POC binding, ALK", "setting": "ALK", "result": 78, "unit": "POC"}, {"measurement": "POC binding, JNK1", "setting": "JNK1", "result": 45, "unit": "POC"}, {"measurement": "POC binding, LTK", "setting": "LTK", "result": 100, "unit": "POC"}, {"measurement": "POC binding, MET", "setting": "MET", "result": 86, "unit": "POC"}, {"measurement": "POC binding, PIM2", "setting": "PIM2", "result": 52, "unit": "POC"}, {"measurement": "POC binding, PKACa", "setting": "PKACa", "result": 82, "unit": "POC"}, {"measurement": "POC binding, PKACb", "setting": "PKACb", "result": 89, "unit": "POC"}, {"measurement": "POC binding, PRKG2", "setting": "PRKG2", "result": 85, "unit": "POC"}, {"measurement": "POC binding, RIOK2", "setting": "RIOK2", "result": 23, "unit": "POC"}, {"measurement": "POC binding, ROCK1", "setting": "ROCK1", "result": 79, "unit": "POC"}, {"measurement": "POC binding, ROCK2", "setting": "ROCK2", "result": 89, "unit": "POC"}, {"measurement": "POC binding, ROS1", "setting": "ROS1", "result": 63, "unit": "POC"}, {"measurement": "EC50", "setting": "HIV-1", "result": 0.58, "unit": "µM"}]}, {"smiles": "CC(C)CNc1ncnc2ccc(C(F)(F)F)cc12", "note": "[compound 45]", "values": [{"measurement": "IC50", "setting": "[1]; [3]", "result": 12.8, "unit": "µM"}]}, {"smiles": "COc1ccc2ncnc(NCCc3ccccc3)c2c1", "note": "[compound 44]", "values": [{"measurement": "IC50", "setting": "[1]; [3]", "result": 11, "unit": "µM"}]}, {"smiles": "N#Cc1ccc2ncnc(NCc3ccc4ccccc4c3)c2c1", "note": "[compound 14]", "values": [{"measurement": "IC50", "setting": "[1]; [2]", "result": 2.54, "unit": "µM"}, {"measurement": "IC50", "setting": "[1]; [3]", "result": 1.2, "unit": "µM"}]}, {"smiles": "N#Cc1ccc2ncnc(NCc3ccc(Cl)cc3)c2c1", "note": "[compound 20]", "values": [{"measurement": "IC50", "setting": "[1]; [2]", "result": 0.199, "unit": "µM"}, {"measurement": "IC50", "setting": "[1]; [3]", "result": 0.6, "unit": "µM"}]}, {"smiles": "CCCNc1ncnc2ccc(N3CCOCC3)cc12", "note": "[compound 46]", "values": [{"measurement": "IC50", "setting": "[1]; [3]", "result": "> 100", "unit": "µM"}]}]}
